# Source: US20160009755A1, “CYRRHETINIC ALKYL ESTERS AND PROTECTED DERIVATIVES THEREOF” (priority 2013, published 2016)
# Tested on: secreted IL-8 in normal human epidermal keratinocytes (NHEK)
# Assay: IL-8 secretion in PMA-stimulated NHEK (anti-inflammatory test)
# Format: cell-based
# Method: In an exemplary test, NHEK were cultured in a medium for 24 hours. […] Then the culture medium was removed and replaced with another culture medium containing or not (control) the […] methyl ester or the reference compound and containing an inflammatory inducer (PMA) and the cells were incubated for 24 hours. A control without inducer was performed in parallel. After incubation, the culture supernatants were collected in order to measure the quantity of secreted IL-8.
compound,measurement,setting,value
"CC1(C)[C@@H](O)CC[C@]2(C)[C@H]3C(=O)C=C4[C@@H]5C[C@@](C)(C(=O)O)CC[C@]5(C)CC[C@@]4(C)[C@]3(C)CC[C@@H]12 [Glycyrrhetinic acid, glycyrrhetinic acid]",% Stimulated Control,0.5 μM,95%
same,Avg. IL-8,0.5 μM,3037 pg/mL
same,% Stimulated Control,1 μM,108%
same,Avg. IL-8,1 μM,3470 pg/mL
same,% Stimulated Control,2 μM,139%
same,Avg. IL-8,2 μM,4450 pg/mL
same,inhibition at 0.5 µM,"Homo sapiens, IL-8 secretion, 0.5 μM",5%
same,inhibition at 1 µM,"Homo sapiens, IL-8 secretion, 1 μM",-9%
same,inhibition at 2 µM,"Homo sapiens, IL-8 secretion, 2 μM",-40%
"CN[C@@H]1C[C@H]2O[C@@](C)([C@@H]1OC)n1c3ccccc3c3c4c(c5c6ccccc6n2c5c31)C(=O)NC4 [Staurosporine, staurosporine]",% Stimulated Control,10^−9M,18%
same,Avg. IL-8,10^−9M,588 pg/mL
"COC(=O)[C@@]1(C)CC[C@]2(C)CC[C@]3(C)C(=CC(=O)[C@@H]4[C@@]5(C)CC[C@H](O)C(C)(C)[C@@H]5CC[C@]43C)[C@@H]2C1 [Cyrrhetinic methyl ester, cyrrhetinic methyl ester]",% Stimulated Control,15.625 μM,42%
same,Avg. IL-8,15.625 μM,1349 pg/mL
same,% Stimulated Control,31.25 μM,28%
same,Avg. IL-8,31.25 μM,907 pg/mL
same,% Stimulated Control,62.5 μM,28%
same,Avg. IL-8,62.5 μM,902 pg/mL
same,% Inhibition,"IL-8 secretion, 15.625 μM",59%
same,% Inhibition,"IL-8 secretion, 31.25 μM",73%
same,% Inhibition,"IL-8 secretion, 62.5 μM",73%
same,inhibition of IL-8 secretion,maximum over tested concentrations (up to),≤ 73%
